Experimental data taken from PubChem BioAssay AID1996.
Values after ≈ are worked out from the molar mass of the structure shown.

Settings: buffer; pH 7.4; 200.0 µM

Structure (SMILES)	solubility kinetic [µg/mL]
Cn1c(SCC(=O)NC2CCS(=O)(=O)C2)nc2ccccc21 (stereo not given)	> 50.9
COc1ccc(/C=C/C(=O)OCc2cccc([N+](=O)[O-])c2)cc1	< 0.7
O=[N+]([O-])c1cccc(-c2noc(COc3ccccc3)n2)c1	0.9 (≈ 3.03 µM)
O=C(Nc1nccs1)C1CC(=O)N(Cc2ccco2)C1 (stereo not given)	40.7 (≈ 140 µM)
Cc1nc(SCc2cccc(C(=O)O)c2)nc2c1CCCC2	> 47.2
O=S(=O)(c1cccs1)N1CN(C2CCCC2)c2nc3ccccc3nc21	8.1 (≈ 21 µM)
Cc1cc(C(=O)CSc2nc(N)cc(=O)[nH]2)c(C)n1CC1CCCO1 (stereo not given)	> 54.4
Cc1ccc2nc(SC(C)C(=O)N3CCCCC3)[nH]c2c1 (stereo not given)	> 45.5
O=C(NCCCn1ccnc1)c1cccc(Cl)c1	> 39.6
Cc1nonc1NC(=O)CSc1nc2ccccc2o1	42.4 (≈ 146 µM)
S=C(NCC(c1ccco1)N1CCCC1)Nc1ccccc1 (stereo not given)	> 47.3
N#C/C(=C\c1ccncc1)c1nc2ccccc2[nH]1	24.8 (≈ 101 µM)
COc1cccc(C(=O)N2CCC(C(=O)NCc3ccco3)CC2)c1	50.6 (≈ 148 µM)
Cc1nc(N2CCN(C)CC2)c2cc(-c3ccccc3)sc2n1	1.8 (≈ 5.55 µM)
COc1ccc(S(=O)(=O)N(C)C)cc1NC(=O)COC(=O)C1CC1	> 53.5
CCc1nnc(NC(=O)C2CC(=O)N(Cc3ccccc3)C2)s1 (stereo not given)	> 49.6
Cc1nn(-c2ccccc2)c(-c2ccccc2[N+](=O)[O-])c1C(=O)O	> 48.5
N#Cc1ccccc1COC(=O)c1ccc(Br)o1	28.4 (≈ 92.8 µM)
CCOc1ccccc1NC(=O)CNC(=O)Cc1ccccc1	46.8 (≈ 150 µM)
O=C(CCNC(=O)c1ccco1)Nc1nc(-c2ccccc2)cs1	8.5 (≈ 24.9 µM)
O=C(NC1CCCc2ccccc21)c1cc(F)cc(F)c1 (stereo not given)	2.6 (≈ 9.05 µM)
CC(CCc1ccc(O)cc1)NCCC(c1ccccc1)c1ccccc1 (stereo not given)	53.4 (≈ 149 µM)
Cc1cc(C(=O)COc2cc(F)ccc2[N+](=O)[O-])c(C)n1C1CC1	3.3 (≈ 9.93 µM)
CCC1(c2ccc(N)cc2)CCC(=O)NC1=O (stereo not given)	> 34.8

Structure (SMILES)	solubility kinetic [µg/mL]
Cc1ccc(/C=C2/C(=O)NC(=O)N(Cc3ccc(F)cc3)C2=O)o1	11.4 (≈ 34.7 µM)
CCC(C)NC(=O)c1ccc(CN2CCc3ccccc3C2)cc1 (stereo not given)	7.1 (≈ 22 µM)
Cc1cc(=O)[nH]c2sc(C(=O)N3c4ccccc4CC3C)c(N)c12 (stereo not given)	> 50.9
COC(=O)c1ccc(Oc2nc(NC(C)C)nc(NC(C)C)n2)cc1	1.4 (≈ 4.05 µM)
O=C(NCCS(=O)(=O)N1CCCCC1)c1ccccc1	> 44.5
CC1=CCC(C(=O)O)C(C(=O)Nc2ccc(-c3nc4ccc(C)cc4s3)cc2)C1 (stereo not given)	> 61
Cc1ccc(-n2c(C)cc(=O)cc2C)cc1[N+](=O)[O-]	> 38.7
CCN1CCC(N2CCN(c3ccc(F)cc3)CC2)CC1	35.5 (≈ 122 µM)
COc1ccc(CCN=Cc2ccc(O)cc2)cc1OC	40.1 (≈ 141 µM)
Cc1cc(C)c2c(N)c(C(=O)Nc3ccc([N+](=O)[O-])cc3)sc2n1	< 0.2
COc1ccccc1CC(=O)N(Cc1ccccc1)c1ccc(C)cc1	10 (≈ 28.9 µM)
O=C(NCCc1ccccc1)c1ccc2c(c1)OCO2	39.6 (≈ 147 µM)
Cc1ccc(S(=O)(=O)Nc2csc(C)c2C(=O)O)cc1	> 46.7
Cc1cc(NC(=O)CCCn2cnc([N+](=O)[O-])n2)no1	> 42
Cc1cccc(OCCCCCN2CCOCC2)c1	29.9 (≈ 114 µM)
CN(C)c1cc[n+](CC(=O)Nc2ccccc2C(F)(F)F)cc1.[Cl-]	> 54
COc1ccc(C)cc1NC(=S)NN1CCN(C)CC1	> 44.2
COc1cc2ccccc2cc1C(=O)Nc1ccc2oc(=O)ccc2c1	< 0.7
CC1(C(=O)NNC(=S)NCC2CCCO2)CC1(Cl)Cl (stereo not given)	> 48.9
O=C1CSC(c2ccc(F)c(F)c2)N1c1ccccc1F (stereo not given)	38.3 (≈ 124 µM)
CC1CN(C(=O)COC(=O)c2ccc(O)cc2)CC(C)O1 (stereo not given)	43.8 (≈ 149 µM)
COc1ccc(CCNC(=O)CSc2ccccn2)cc1OC	> 49.9
CCN(CC(=O)NCc1ccc(Cl)cc1)C(=O)c1cc(S(=O)(=O)N2CCOCC2)ccc1C	> 74.1
Cc1ccc(C(=O)NCN2CCN(c3ccc(F)cc3)CC2)cc1	> 49.1

Structure (SMILES)	solubility kinetic [µg/mL]
CC(=O)NC(CC(=O)O)c1ccccc1 (stereo not given)	> 31.1
CC(=O)NCCCNS(=O)(=O)c1ccc(C)cc1	32.2 (≈ 119 µM)
CCOC(=O)c1cnc(C(F)(F)F)nc1Oc1ccccc1	11.7 (≈ 37.5 µM)
COc1ccc(/C=C/C(=O)O)cc1S(=O)(=O)Nc1ccc2c(c1)OCO2	49.8 (≈ 132 µM)
O=C(NC1CCSc2ccccc21)c1cccc([N+](=O)[O-])c1 (stereo not given)	2.4 (≈ 7.63 µM)
Cn1c2ccccc2c2nnc(SCCN3CCOCC3)nc21	> 49.4
CCCCC(=O)NC(c1ccccc1)c1ccc2cccnc2c1O (stereo not given)	< 0.4
CCOC(=O)c1sc(NC(=O)Cc2ccccc2OC)nc1C	14.7 (≈ 44 µM)
CSc1ccccc1NC(=O)CN1CCCCC1	35.8 (≈ 135 µM)
Cc1cccc(C(=O)NCC(=O)OCC(=O)c2ccc(Cl)s2)c1	> 52.8
O=C1CCCN1CC(O)CS(=O)(=O)Cc1ccccc1 (stereo not given)	> 44.6
O=[N+]([O-])c1cccnc1Oc1ccc(C2SCCS2)cc1	< 0.3
CCN(CC)S(=O)(=O)c1ccc(N2CCOCC2)c(NC(=O)c2ccco2)c1	> 61.1
CN(Cc1ccccc1)S(=O)(=O)c1ccc(Cl)c(C(=O)N2CCC(C(N)=O)CC2)c1	> 67.5
O=C1COc2ccc(C(=O)COc3ccc([N+](=O)[O-])cc3)cc2N1	0.8 (≈ 2.44 µM)
CN(C)c1ncnc(N(C)C)c1[N+](=O)[O-]	> 31.7
CC(C)(C)OC(=O)N1Cc2[nH]c3ccccc3c2C[C@@H]1C(=O)O	> 47.5
O=C(/C=C/c1ccccc1)OCC(=O)c1c[nH]c2ccccc12	3.9 (≈ 12.8 µM)
CCOCCCNC(=O)N[C@H](C(=O)OC)C(C)CC (stereo not given in full)	> 41.2
Cc1cccc(C(=O)OCC(=O)N2CCCCCC2)c1O	36 (≈ 124 µM)
CCCc1ccc(C(=O)O/N=C(\N)c2ccccn2)cc1	3.1 (≈ 10.9 µM)
Cc1ccc(Nc2nnc(C)c3ccccc23)c(C)c1	> 39.5
CC(C)c1ccc(C(O)Cc2nc3ccccc3n2C)cc1 (stereo not given)	1.8 (≈ 6.11 µM)
CN(C)C(=O)Oc1noc2cc(Cl)ccc12	27.9 (≈ 116 µM)

Structure (SMILES)	solubility kinetic [µg/mL]
O=C(c1ccco1)N1CCn2cccc2C1c1ccccc1 (stereo not given)	42 (≈ 144 µM)
O=C(O)/C=C\C(=O)Nc1ccc(OC(F)F)cc1	35.5 (≈ 138 µM)
CC(C)c1ccc(N=C(N)N=C(N)N)cc1.Cl	> 38.4
O=C(Nc1cccc(C(=O)NC2CCCCC2)c1)c1ccccc1	2.8 (≈ 8.68 µM)
CC(C)c1ccc(C2NC(=O)c3ccccc3O2)cc1 (stereo not given)	1 (≈ 3.74 µM)
CC(NC(=O)NC(=O)c1cccc([N+](=O)[O-])c1)C1CC1 (stereo not given)	3.8 (≈ 13.7 µM)
Cc1cccc2c1NC(=O)C2=Nc1ccc(Cl)cc1	4.7 (≈ 17.4 µM)
O=C(NCCc1ccccc1)c1ccc(Cl)c(S(=O)(=O)N2CCOCC2)c1	9.3 (≈ 22.7 µM)
Cc1ccc(NC(=O)c2cccs2)cc1[N+](=O)[O-]	2.4 (≈ 9.15 µM)
COc1cccc(C(=O)NN2C(=S)N(c3ccccc3)C(=O)C2CC(N)=O)c1 (stereo not given)	> 59.8
Cc1onc(-c2ccccc2Cl)c1C(=O)N1CC(C)CC(C)C1 (stereo not given)	> 49.9
Cc1ccc(C(=O)NCCCNC(=O)c2ccc(C)nc2)cc1	> 46.7
O=C(COc1ccccc1)Nc1cc(Cl)ccc1Cl	< 0.6
COc1ccc2[nH]cc(CCn3ccc(=O)c(C)c3C)c2c1	42.2 (≈ 142 µM)
CCOC(=O)Nc1cccc(NC(=O)c2ccccc2F)c1	> 45.3
COc1ccc(NC(=O)c2cccs2)cn1	> 35.1
Cc1ccc2c3c([nH]c2c1)C(=O)CC(C)(C)S3	< 0.5
Nc1c(Br)cc(Br)cc1CNC1CCC(O)CC1 (stereo not given)	> 56.7
CS(=O)(=O)N1CCN=C1SCc1ccccc1	> 40.6
Cn1ccnc1SCC(=O)c1c(N)n(C)c(=O)n(C)c1=O	41.5 (≈ 134 µM)
CC1=C(C)C(O)N(Cc2ccccc2)C1=O (stereo not given)	> 32.6
CC1CCCN(c2cc(N(C)CCO)c([N+](=O)[O-])c3nonc23)C1 (stereo not given)	> 50.3
Cc1occc1C(=O)Nc1sccc1C(N)=O	10.7 (≈ 42.8 µM)
COCCCn1c(=O)c2ccccc2n(Cc2ccccc2C)c1=O	> 50.8

Structure (SMILES)	solubility kinetic [µg/mL]
Cc1cc(C(=O)c2cnc(/N=C/N(C)C)s2)c(F)cc1Cl	13.6 (≈ 41.7 µM)
CCOC(=O)c1csc(-c2ccc([N+](=O)[O-])cc2)n1	5.6 (≈ 20.1 µM)
COc1ccc(C(=O)NC(=S)NC(C)c2ccccc2)cc1 (stereo not given)	2.6 (≈ 8.27 µM)
O=C(Cc1ccccc1)N/N=C/c1ccc[nH]1	> 34.1
CCCCC(CC)C(=O)Nc1ncc([N+](=O)[O-])s1 (stereo not given)	> 40.7
CCOC(=O)Cc1csc(NC(=O)c2cc(=O)c3ccccc3o2)n1	51.8 (≈ 145 µM)
O=C(O)C1CCCN1S(=O)(=O)c1ccc(Br)cc1 (stereo not given)	> 50.1
COC(CNc1ccc([N+](=O)[O-])c(NCC(OC)OC)c1C#N)OC	19 (≈ 53.6 µM)
COc1ccc(NC(=O)Nc2nc(C)cc(C)n2)c(OC)c1	> 45.3
CC(=O)Nc1ccc(C(=O)N2CC(=O)NC(=O)C2)cc1	> 41.3
CC(C)(C)NC(=O)c1ccc2c(c1)CCO2	> 32.9
Cc1nc2ccccc2[nH]c1=O	> 24
Cc1ccsc1C(=O)NCC(C)(C)N1CCOCC1	> 42.4
COc1cccc(C(=O)Nc2ccccc2N2CCN(C(=O)c3ccccc3)CC2)c1	15 (≈ 36.1 µM)
O=C(O)CN1C(=O)/C(=C/c2ccc(SCc3ccccc3)o2)SC1=S	21.2 (≈ 54.2 µM)
CCOC(=O)Cc1csc(CC(N)=O)[nH+]1.[Cl-]	> 39.7
Cc1csc(SCC(=O)Nc2ccc(C)c(F)c2)n1	> 44.5
Cc1c(NS(=O)(=O)c2cccs2)cccc1-c1nc2cccnc2s1	2.4 (≈ 6.19 µM)
CN1CCN(Cc2nc3ccccc3n2C)CC1CCO (stereo not given)	34.3 (≈ 119 µM)
S=C(Nc1ccccn1)Nc1ccccc1Cl	2.1 (≈ 7.96 µM)
O=C(Nc1cc([N+](=O)[O-])ccc1N1CCCC1)c1ccccc1	1.5 (≈ 4.82 µM)
Clc1ccc2scc(CN3CCCC3)c2c1	35.3 (≈ 140 µM)
CCOc1cc(CN2CCCCCC2)ccc1OC	27.4 (≈ 104 µM)
CCOc1ccc(NC(=O)COC(=O)CC2CCCCC2)cc1	26.6 (≈ 83.3 µM)
